Assays:
[1] = biological target: T1, mouse GAC (E. coli-expressed mouse ortholog of human GAC) (Mus musculus, UniProt D3Z7P3); assay: Recombinant glutaminase activity assay; format: biochemical
T1 construct: A plasmid encoding mouse GAC (residues 128-603) was cloned into the pET28a vector; His (N, cleaved yes); made in house; host or cells: E. coli (pET28a)
T1 sequence (D3Z7P3 128-603 isoform D3Z7P3-2): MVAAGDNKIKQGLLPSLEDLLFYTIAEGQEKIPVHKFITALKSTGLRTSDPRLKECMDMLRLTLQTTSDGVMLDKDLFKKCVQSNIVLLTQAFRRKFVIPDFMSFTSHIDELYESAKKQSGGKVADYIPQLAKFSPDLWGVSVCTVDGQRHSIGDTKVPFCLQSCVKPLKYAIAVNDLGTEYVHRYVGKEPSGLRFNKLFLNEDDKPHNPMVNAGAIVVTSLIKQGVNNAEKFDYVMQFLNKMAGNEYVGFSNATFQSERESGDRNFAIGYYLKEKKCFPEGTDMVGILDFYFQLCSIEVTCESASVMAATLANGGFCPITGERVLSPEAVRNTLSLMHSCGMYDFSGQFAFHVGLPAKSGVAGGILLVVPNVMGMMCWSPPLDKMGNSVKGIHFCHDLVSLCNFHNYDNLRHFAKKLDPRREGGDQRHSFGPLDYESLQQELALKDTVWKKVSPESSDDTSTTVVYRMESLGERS
Experimental: 100%=620 moles of glutamine hydrolyzed per minute per mole of enzyme. Data represent the average of 3 experiments (±s.d.). […] Following precipitation of the beads and re-suspension, the samples were analyzed by Western blotting with anti-V5 antibody. […] Data represent the average of 3 experiments (±s.d.). […] Data represent the average of 3 experiments (±s.d.). […] Data represent the average of 3 experiments (±s.d.). FIG. 3E NIH 3T3 cells transiently expressing Dbl were assayed for focus formation in the presence of 10 μM 968 alone or together with 7 mM dimethyl α-ketoglutarate. […] 100%=680 nM glutamine hydrolyzed per minute per 10^5 cells. Data are the average of 3 experiments (±s.d.). […] 100%=750 nM glutamine hydrolyzed per minute per 10^5 cells. Data represent the average of 3 experiments (±s.d.).
The activity of the E. coli-expressed recombinant mouse ortholog of human GAC were assayed in the presence of 0 ([…]), 10 (∇) or 20 (▪) μM 968 and inorganic phosphate in the form of dipotassium hydrogen phosphate. […] The data are plotted as GA activity as function of varying concentrations of glutamine or inorganic phosphate. The data are the average of 3 experiments and are plotted as mean±SEM.
Glutaminase activity assays were performed on recombinant enzyme as previously described (Kenny et al., “Bacterial Expression, Purification and Characterization of Rat Kidney-Type Mitochondrial Glutaminase,” Protein Expr. Purif. 31:140-148 (2003), which is hereby incorporated by reference in its entirety). A plasmid encoding mouse GAC (residues 128-603) was cloned into the pET28a vector and the protein was expressed with an N-terminal histidine (His)-tag. The tag was cleaved using thrombin and the protein was further purified by anion-exchange and gel-filtration chromatography. […] The reaction mixture was incubated at room temperature for 45 minutes and the absorbance at 340 nm was recorded for each sample against a water blank. The absorbance of the sample with just the cocktail mixture was subtracted from each reading to calculate the activity of the enzyme.

GAC phosphorylation = biological target: T2, GAC phosphorylation (Mus musculus, UniProt D3Z7P3); assay: 2-D gel analysis of V5-GAC phosphorylation states from treated Dbl cells; format: cell-based; conditions: 968 10 μM, 48 hours
T2 construct: expressed in transfected cells; host or cells: NIH 3T3 cells (stably expressing Dbl, or parental), transient transfection
T2 sequence (D3Z7P3 55-603 isoform D3Z7P3-2 limits assumed): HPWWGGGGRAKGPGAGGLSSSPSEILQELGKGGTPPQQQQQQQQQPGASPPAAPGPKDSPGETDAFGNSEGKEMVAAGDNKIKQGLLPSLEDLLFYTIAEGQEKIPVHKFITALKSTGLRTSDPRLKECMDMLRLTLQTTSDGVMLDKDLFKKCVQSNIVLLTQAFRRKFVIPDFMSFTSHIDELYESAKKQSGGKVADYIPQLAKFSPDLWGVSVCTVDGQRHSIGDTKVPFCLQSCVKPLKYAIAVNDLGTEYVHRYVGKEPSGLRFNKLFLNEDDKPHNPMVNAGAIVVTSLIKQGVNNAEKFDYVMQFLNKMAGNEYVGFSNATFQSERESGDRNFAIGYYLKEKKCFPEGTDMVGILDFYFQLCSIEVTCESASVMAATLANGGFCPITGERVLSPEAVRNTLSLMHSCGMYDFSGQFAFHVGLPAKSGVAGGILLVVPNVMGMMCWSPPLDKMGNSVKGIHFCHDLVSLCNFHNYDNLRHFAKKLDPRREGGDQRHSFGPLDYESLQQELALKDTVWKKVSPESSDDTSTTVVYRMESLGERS
Experimental: NIH 3T3 cells stably expressing the Dbl oncogene, were transiently transfected with DNA encoding a VS-tagged GAC, and then one sample was treated with 968 (10 μM) for 48 hours. The cells were then harvested and the ectopically expressed GAC was isolated by immunoprecipitation via the V5 tag. The samples were then subjected to 2-D gel analysis to separate the V5-GAC by charge and size, and the V5-tagged GAC was visualized by Western blotting using an anti-V5 antibody.
GAC runs distinctly on a 2D gel depending whether it is expressed in normal (untransformed) NIH 3T3 cells or in NIH 3T3 cells which are transformed by the Dbl oncogene. Specifically, there is one major species of GAC present in NIH 3T3 cells whereas in Dbl cells, two additional species of GAC appear which migrate with a more negative charge but at the same molecular mass as the original species (FIG. 21, first and second panels). […] Additionally, it has been shown that small molecules of the 968 family which are able to inhibit GAC in vivo do so by blocking the ability of GAC to become phosphorylated. Thus, it was of great interest to identify the amino acid(s) on GAC whose phosphorylation is causal in the activation of this enzyme.

CN(C)c1ccc(C2Nc3ccc4ccccc4c3C3=C2C(=O)CC(C)(C)C3)cc1Br (stereo not drawn) [Compound 968, 5-[3-bromo-4-(dimethylamino)phenyl]-2,2-dimethyl-2,3,5,6-tetrahydrobenzo[a]]
inhibition of enzymatic activity of purified mouse GAC [1]: inhibits the enzymatic activity | mode of inhibition ([1]; 0, 10 or 20 μM, glutamine or inorganic phosphate varied): neither competitive versus substrate (glutamine) nor inorganic phosphate | phosphorylation state of GAC (GAC phosphorylation): significant reduction of at least one phosphorylation state of GAC

Source: patent US20130252983A1, “ACTIVATING PHOSPHORYLATION SITE ON GLUTAMINASE C” (CORNELL UNIVERSITY, priority 2010, published 2013)
